In data set [1] the test system is HepG2 cells. The data set is described as follows: Affymetrix HG U95Av2 microarray gene expression analysis. The format is cell-based, human. The settings on record: 1 µM hyperforin, 24 h. The protocol:
(§1) HepG2 cells (human hepatocellular carcinoma, German Collection of Microorganisms and Cell Cultures, DSMZ, Braunschweig, Germany) were grown in Dulbecco's Modified Eagle Medium containing 1 g/l D-glucose and 5% fetal bovine serum with 5% CO2 at 37°C. Cells were seeded in 6-well dishes and grown to confluence. Content of 1 Esbericum™ capsule (total hypericin […], Schaper & Bruemmer, Salzgitter, Germany) was extracted with 1 ml ethanol. Cells were treated with either this extract (final concentration 0.1% (v/v)), or 1 µM hyperforin (Calbiochem, Schwalbach, Germany), or 0.1 % ethanol (controls) for 24 h. Three independent experiments were performed.
(§2) Cells were washed twice with phosphate buffered saline, harvested in lysis buffer (Qiagen, Hilden, Germany) with a rubber-policeman and homogenised by centrifugation through a Qiashredder (Qiagen, Hilden, Germany). Preparation of total RNA was performed using a Qiagen RNeasy Mini Kit according to the manufacturer's instructions. RNA concentration was determined photometrically (Uvicon photometer, Kontron). RNA was either used immediately for cDNA synthesis or stored at -80°C.
Expression analysis was performed with Affymetrix HG U95Av2 microarray (Affymetrix, Santa Clara, CA). Synthesis of biotin-labelled cRNA and hybridisation were carried out following the Affymetrix protocol. Results were exported to Excei for analysis.

The test system of data set [2] is HepG2 cells. The data set is described as follows: Real-time RT-PCR gene expression analysis. The format is cell-based, human. The settings on record: 1 µM hyperforin, 24 h, vs. control, geometric mean of three experiments. The protocol:
as §1, §2
5 µg RNA was reverse transcribed in a total volume of 20 µl containing 200 U SuperScript™ II RT and 1x reaction buffer (Invitrogen, Karlsruhe, Germany), 500 ng pd(T)12-18 (Amersham Pharmacia Biotech, Freiburg, Germany) and 125 pmol/µl of each dNTP at 42°C for 1 h. Real-time PCR was performed with QuantiTect™ SYBR® Green PCR Kit (Qiagen, Hilden, Germany) according to the manufacturer's instructions. The reaction was carried out in a LightCycler (Roche, Mannheim, Germany), version 5.32, and analysed using the Second Derivative Maximum method.
Background: Real-time PCR tracks product formation cycle by cycle.

[3] abbreviates: vs. control, geometric mean of three experiments.

Hyperforin: in data set [1], the “differentially regulated sequences that were upregulated” value worked out at 120 sequences and the “sequences identified as differentially regulated (p<0.05)” value was 201 sequences. Further, in data set [1] (setting [3]), the “Fold change of ALDOA transcript, Array” value came to 1.41; the “Fold change of ENO2 transcript, Array” value is given as 2.75; the “Fold change of FDPS transcript, Array” value is 0.53; the “Fold change of IGFBP3 transcript, Array” value worked out at 8.79. Moreover, in data set [1] (setting [3]), the “Fold change of LDHA transcript, Array” value is 1.36; the “Fold change of LDHB transcript, Array” value worked out at 1.42; the “Fold change of MVD transcript, Array” value was 0.26; the “Fold change of PCK2 transcript, Array” value is 0.43. For the same substance, in data set [1] (setting [3]), the “Fold change of PFKFB3 transcript, Array” value is recorded as 1.83; the “Fold change of PGK1 transcript, Array” value is recorded as 1.50; the “Fold change of PKM2 transcript, Array” value turned out to be 1.40; the “Fold change of SLC2A1 transcript, Array” value came out at 1.74. In data set [1] (setting [3]), the “Fold change of SLC2A3 transcript, Array” value is 3.57; the “Fold change of SLC25A8 / UCP2 transcript, Array” value came out at 0.54; the “Fold change of TM7SF2 transcript, Array” value stood at 0.52. In addition, in data set [2], the “Fold change of ALDOA transcript, RT-PCR” value came to 1.42; the “Fold change of FDPS transcript, RT-PCR” value came out at 0.49; the “Fold change of IGFBP3 transcript, RT-PCR” value amounted to 8.29; the “Fold change of MVD transcript, RT-PCR” value turned out to be 0.56. Besides, in data set [2], the “Fold change of PCK2 transcript, RT-PCR” value was 0.49; the “Fold change of SLC2A1 transcript, RT-PCR” value amounted to 1.90; the “Fold change of SLC2A3 transcript, RT-PCR” value is on record as 2.84.

The record behind these values is EP1774974A1, “Use of hyperforin or St. John's Wort in the treatment and prevention of metabolic syndrome” (Roots, Ivar, priority 2005, dated 2007).
